Measurements as given in US7449545B2, “Antimicrobial bolisin peptides” (IPF Pharmaceuticals GmbH, priority 2001, dated 2008).
Ends that are not written are not given here.

Assays:
Format in all cases: cell-based
[1] = tested on: Klebsiella pneumoniae ATCC 10031; conditions: ATCC 10031, 2 h
Method in brief: (§1)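 Antimicrobial potency of the synthesized peptides is expressed as MIC (μg/ml), read as complete inhibition of growth after an 18±2 h incubation in a Mueller Hinton Broth dilution series.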

[2] = tested on: Staphylococcus aureus ATCC 25923; conditions: ATCC 25923, 2 h
Method in brief: as §1

[3] = tested on: Candida albicans ATCC 10231; conditions: for minimum inhibition concentration: ATCC 10231, 2 h
[4] = tested on: Streptococcus pneumoniae DSM 11865 (penicillin-resistant); conditions: DSM 11865, 2 h
Method in brief: as §1

[5] = tested on: Escherichia coli ATCC 25922; conditions: ATCC 25922, 2 h
Method in brief: as §1

[6] = tested on: Enterococcus faecalis ATCC 51299 (vancomycin-resistant); conditions: ATCC 51299, 2 h
Method in brief: as §1

[7] = tested on: Klebsiella pneumoniae ATCC 10031; conditions: Tryptic Soy Broth (3 g/l) with 150 mM sodium chloride; complete growth inhibition not achieved
Method: (§2) The antibiotic activity of bolisin analogues was examined by determining the minimum inhibition concentration. The minimum inhibition concentration of an analogue designates the lowest peptide concentration which is required to inhibit the growth of microorganisms completely after an incubation time of 18±2 h. This method allows to obtain a quantitative result about the antimicrobial potency of the peptides. These examinations were performed by analogy with the recommendations (M7-A3) edited by the NCCLS (National Committee for Clinical Laboratory Standards) by applying a dilution test in a liquid medium using chemically synthesized peptides (peptide sequences according to claims 1 to 3). Mueller Hinton Broth was used as the test medium according to the NCCLS recommendations unless indicated otherwise. […] The minimum inhibition concentrations are stated in [μg/ml].
(§3) A complete growth inhibition could not be achieved in this case. For determining the minimum inhibition concentration, the following microorganisms were used: • 1. Staphylococcus aureus ATCC 25923 • 2. Enterococcus faecalis ATCC 51299 (vancomycin-resistant) • 3. Streptococcus pneumoniae DSM 11865 (penicillin-resistant) • 4. Escherichia coli ATCC 25922 • 5. Pseudomonas aeruginosa ATCC 9027 • 6. Klebsiella pneumoniae ATCC 10031 • 7. Candida albicans ATCC 10231
(§4) Also for these examinations, the minimum inhibition concentration of the peptides against Gram-positive and Gram-negative microorganisms (microorganisms 1-6) was determined. Tryptic Soy Broth (3 g/l) with an addition of salt in physiological concentration (150 mM sodium chloride) was used as the test medium.
(§5) A complete growth inhibition could not be achieved in this case.

[8] = tested on: Pseudomonas aeruginosa ATCC 9027; conditions: Mueller Hinton Broth; complete growth inhibition not achieved
[9] = tested on: Enterococcus faecalis ATCC 51299 (vancomycin-resistant); conditions: Tryptic Soy Broth (3 g/l) with 150 mM sodium chloride; complete growth inhibition not achieved
Method: as §2, §3, §4, §5

[10] = tested on: Staphylococcus aureus ATCC 25923; conditions: Tryptic Soy Broth (3 g/l) with 150 mM sodium chloride; complete growth inhibition not achieved
Method: as §2, §3, §4, §5

[11] = tested on: Streptococcus pneumoniae DSM 11865 (penicillin-resistant); conditions: Tryptic Soy Broth (3 g/l) with 150 mM sodium chloride; complete growth inhibition not achieved
Method: as §2, §3, §4, §5

YIVYKIRRARKRRKALK-OH [BOL-52, YIVYKIRRARKRRKALK]
minimum inhibition concentration [1]: 75 µg/mL | minimum inhibition concentration [2]: 300 µg/mL | peptide concentration giving 75% inhibition of growth (value in parentheses) ([3]; Mueller Hinton Broth, complete growth inhibition not achieved): (37.5) μg/ml | minimum inhibition concentration [4]: 200 µg/mL | minimum inhibition concentration [5]: >300 µg/mL | minimum inhibition concentration [6]: 200 µg/mL | peptide concentration giving 75% inhibition of growth (value in parentheses) [7]: (300) μg/ml | peptide concentration giving 75% inhibition of growth (value in parentheses) [8]: (37.5) μg/ml

YIVYKIRSAWKRRKALK-OH [BOL-44, YIVYKIRSAWKRRKALK]
minimum inhibition concentration [1]: 75 µg/mL | minimum inhibition concentration [2]: 150 µg/mL | minimum inhibition concentration [3]: 37.5 µg/mL | minimum inhibition concentration [4]: 200 µg/mL | minimum inhibition concentration [5]: 200 µg/mL | minimum inhibition concentration [6]: >300 µg/mL | peptide concentration giving 75% inhibition of growth (value in parentheses) [9]: (300) μg/ml | peptide concentration giving 75% inhibition of growth (value in parentheses) [8]: (75) μg/ml

KYIVYKIRSAWKRRKALK-OH [BOL-86, KYIVYKIRSAWKRRKALK]
minimum inhibition concentration [1]: 50 µg/mL | minimum inhibition concentration [2]: 75 µg/mL | minimum inhibition concentration [3]: 18.75 µg/mL | minimum inhibition concentration [4]: 150 µg/mL | minimum inhibition concentration [5]: 150 µg/mL | minimum inhibition concentration [6]: 200 µg/mL | peptide concentration giving 75% inhibition of growth (value in parentheses) [10]: (300) μg/ml | peptide concentration giving 75% inhibition of growth (value in parentheses) [11]: (300) μg/ml | peptide concentration giving 75% inhibition of growth (value in parentheses) [8]: (18.75) μg/ml

YIVWKIRSARKRWKALK-OH [BOL-81, YIVWKIRSARKRWKALK]
minimum inhibition concentration [1]: 25 µg/mL | minimum inhibition concentration [2]: 300 µg/mL | minimum inhibition concentration [3]: 75 µg/mL | minimum inhibition concentration [4]: 75 µg/mL | minimum inhibition concentration [5]: 300 µg/mL | minimum inhibition concentration [6]: 150 µg/mL | peptide concentration giving 75% inhibition of growth (value in parentheses) [10]: (300) μg/ml | peptide concentration giving 75% inhibition of growth (value in parentheses) [11]: (75) μg/ml | peptide concentration giving 75% inhibition of growth (value in parentheses) [8]: (18.75) μg/ml

YIVYKIRSARKRWK-OH [BOL-71, YIVYKIRSARKRWK]
minimum inhibition concentration [1]: 300 µg/mL | minimum inhibition concentration [2]: 200 µg/mL | minimum inhibition concentration [3]: 300 µg/mL | minimum inhibition concentration [4]: 300 µg/mL | minimum inhibition concentration [5]: 300 µg/mL | minimum inhibition concentration [6]: 200 µg/mL | peptide concentration giving 75% inhibition of growth (value in parentheses) [9]: (300) μg/ml | peptide concentration giving 75% inhibition of growth (value in parentheses) [8]: (200) μg/ml

YIVYKIRRAWKRRKALK-OH [BOL-54, YIVYKIRRAWKRRKALK]
minimum inhibition concentration [1]: 18.75 µg/mL | minimum inhibition concentration [2]: 200 µg/mL | minimum inhibition concentration [3]: 18.75 µg/mL | minimum inhibition concentration [4]: 75 µg/mL | minimum inhibition concentration [5]: 100 µg/mL | minimum inhibition concentration [6]: 100 µg/mL | peptide concentration giving 75% inhibition of growth (value in parentheses) [7]: (200) μg/ml | peptide concentration giving 75% inhibition of growth (value in parentheses) [8]: (25) μg/ml
